Measurements: patent publication US12486273B2 (Hoffmann-La Roche Inc., priority 2019, dated 2025)
pIC50: −log10 of the molar value.

Legend:
Type in all cases: cell-based
human TLR7 = human TLR7 (Homo sapiens (Human), UniProt Q9NYK1); test: HEK293-Blue-hTLR-7 cells assay; settings: HEK293-Blue-hTLR7 cells, R848 stimulation, 20 hrs, SEAP reporter; read-out: HEK/hTLR7 IC50
Text: HEK293-BLUE-hTLR-7 CELLS ASSAY:
(§1) A stable HEK293-Blue-hTLR-7 cell line was purchased from InvivoGen (Cat. #: hkb-htlr7, San Diego, California, USA). These cells were originally designed for studying the stimulation of human TLR7 by monitoring the activation of NF-κB. A SEAP (secreted embryonic alkaline phosphatase) reporter gene was placed under the control of the IFN-β minimal promoter fused to five NF-κB and AP-1-binding sites. The SEAP was induced by activating NF-κB and AP-1 via stimulating HEK-Blue hTLR7 cells with TLR7 ligands. Therefore the reporter expression was declined by TLR7 antagonist under the stimulation of a ligand, such as R848 (Resiquimod), for incubation of 20 hrs. The cell culture supernatant SEAP reporter activity was determined using QUANTI-Blue™ kit (Cat. #: rep-qb1, Invivogen, San Diego, Ca, USA) at a wavelength of 640 nm, a detection medium that turns purple or blue in the presence of alkaline phosphatase.
(§2) HEK293-Blue-hTLR7 cells were incubated at a density of 250,000˜450,000 cells/mL in a volume of 170 μL in a 96-well plate in Dulbecco's Modified Eagle's medium (DMEM) containing 4.5 g/L glucose, 50 U/mL penicillin, […], […], 2 mM L-glutamine, 10% (v/v) heat-inactivated fetal bovine serum with addition of 20 μL test compound in a serial dilution in the presence of final DMSO at 1% and 10 μL of 20 μM R848 in above DMEM, perform incubation under 37° C. in a CO2 incubator for 20 hrs. Then 20 μL of the supernatant from each well was incubated with 180 μL Quanti-blue substrate solution at 37° C. for 2 hrs and the absorbance was read at 620-655 nm using a spectrophotometer. The signaling pathway that TLR7 activation leads to downstream NF-κB activation has been widely accepted, and therefore similar reporter assay was modified for evaluating TLR7 antagonist.

human TLR8 = human TLR8 (Homo sapiens (Human), UniProt Q9NR97); test: HEK293-Blue-hTLR-8 cells assay; settings: HEK293-Blue-hTLR8 cells, R848 stimulation, 20 hrs, SEAP reporter; read-out: HEK/hTLR8 IC50
Chain of human TLR8 (Q9NR97 27-1041): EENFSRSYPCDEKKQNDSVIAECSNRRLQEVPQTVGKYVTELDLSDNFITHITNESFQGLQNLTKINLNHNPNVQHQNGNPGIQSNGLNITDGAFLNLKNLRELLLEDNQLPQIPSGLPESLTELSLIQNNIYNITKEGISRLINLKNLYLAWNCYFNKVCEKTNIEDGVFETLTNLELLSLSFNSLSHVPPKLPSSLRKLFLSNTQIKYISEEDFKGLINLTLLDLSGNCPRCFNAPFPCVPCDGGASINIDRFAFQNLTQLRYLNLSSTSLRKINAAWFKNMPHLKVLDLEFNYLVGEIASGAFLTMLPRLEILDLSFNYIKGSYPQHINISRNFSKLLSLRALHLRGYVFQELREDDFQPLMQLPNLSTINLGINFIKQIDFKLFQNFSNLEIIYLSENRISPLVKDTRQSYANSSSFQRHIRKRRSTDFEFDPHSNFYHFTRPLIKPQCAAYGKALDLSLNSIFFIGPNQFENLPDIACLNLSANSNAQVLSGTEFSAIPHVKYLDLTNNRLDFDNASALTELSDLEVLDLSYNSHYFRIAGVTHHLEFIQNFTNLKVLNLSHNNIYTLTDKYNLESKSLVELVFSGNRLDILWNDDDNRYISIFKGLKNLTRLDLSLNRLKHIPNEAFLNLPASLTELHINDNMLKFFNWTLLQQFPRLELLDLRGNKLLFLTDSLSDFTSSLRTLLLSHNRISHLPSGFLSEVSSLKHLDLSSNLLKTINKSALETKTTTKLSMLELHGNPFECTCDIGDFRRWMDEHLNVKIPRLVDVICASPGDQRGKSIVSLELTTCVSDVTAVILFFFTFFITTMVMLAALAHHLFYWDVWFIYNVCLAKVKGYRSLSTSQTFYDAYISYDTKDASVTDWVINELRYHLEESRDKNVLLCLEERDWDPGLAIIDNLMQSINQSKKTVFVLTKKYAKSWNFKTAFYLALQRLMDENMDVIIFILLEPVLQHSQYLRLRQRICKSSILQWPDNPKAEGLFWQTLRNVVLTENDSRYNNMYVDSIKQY
Text: HEK293-Blue-hTLR-8 Cells Assay:
as §1, with “HEK293-Blue-hTLR-8” for “HEK293-Blue-hTLR-7”, “hkb-htlr8,” for “hkb-htlr7,”, “TLR8” for “TLR7”, “hTLR8” for “hTLR7”, “R848,” for “R848 (Resiquimod),”, “rep-Qb1,” for “rep-qb1,”
HEK293-Blue-hTLR8 cells were incubated at a density of 250,000-450,000 cells/mL in a volume of 170 μL in a 96-well plate in Dulbecco's Modified Eagle's medium (DMEM) containing 4.5 g/L glucose, 50 U/mL penicillin, […], […], 2 mM L-glutamine, 10% (v/v) heat-inactivated fetal bovine serum with addition of 20 μL test compound in a serial dilution in the presence of final DMSO at 1% and 10 μL of 60 μM R848 in above DMEM, perform incubation under 37° C. in a CO2 incubator for 20 hrs. Then 20 μL of the supernatant from each well was incubated with 180 μL Quanti-blue substrate solution at 37° C. for […] and the absorbance was read at 620˜655 nm using a spectrophotometer. The signaling pathway that TLR8 activation leads to downstream NF-κB activation has been widely accepted, and therefore similar reporter assay was modified for evaluating TLR8 antagonist.

human TLR9 = human TLR9 (Homo sapiens (Human), UniProt Q9NR96); test: HEK293-Blue-hTLR-9 cells assay; settings: HEK293-Blue-hTLR9 cells, ODN2006 stimulation, 20 hrs, SEAP reporter; read-out: HEK/hTLR9 IC50
Chain of human TLR9 (Q9NR96 26-1032): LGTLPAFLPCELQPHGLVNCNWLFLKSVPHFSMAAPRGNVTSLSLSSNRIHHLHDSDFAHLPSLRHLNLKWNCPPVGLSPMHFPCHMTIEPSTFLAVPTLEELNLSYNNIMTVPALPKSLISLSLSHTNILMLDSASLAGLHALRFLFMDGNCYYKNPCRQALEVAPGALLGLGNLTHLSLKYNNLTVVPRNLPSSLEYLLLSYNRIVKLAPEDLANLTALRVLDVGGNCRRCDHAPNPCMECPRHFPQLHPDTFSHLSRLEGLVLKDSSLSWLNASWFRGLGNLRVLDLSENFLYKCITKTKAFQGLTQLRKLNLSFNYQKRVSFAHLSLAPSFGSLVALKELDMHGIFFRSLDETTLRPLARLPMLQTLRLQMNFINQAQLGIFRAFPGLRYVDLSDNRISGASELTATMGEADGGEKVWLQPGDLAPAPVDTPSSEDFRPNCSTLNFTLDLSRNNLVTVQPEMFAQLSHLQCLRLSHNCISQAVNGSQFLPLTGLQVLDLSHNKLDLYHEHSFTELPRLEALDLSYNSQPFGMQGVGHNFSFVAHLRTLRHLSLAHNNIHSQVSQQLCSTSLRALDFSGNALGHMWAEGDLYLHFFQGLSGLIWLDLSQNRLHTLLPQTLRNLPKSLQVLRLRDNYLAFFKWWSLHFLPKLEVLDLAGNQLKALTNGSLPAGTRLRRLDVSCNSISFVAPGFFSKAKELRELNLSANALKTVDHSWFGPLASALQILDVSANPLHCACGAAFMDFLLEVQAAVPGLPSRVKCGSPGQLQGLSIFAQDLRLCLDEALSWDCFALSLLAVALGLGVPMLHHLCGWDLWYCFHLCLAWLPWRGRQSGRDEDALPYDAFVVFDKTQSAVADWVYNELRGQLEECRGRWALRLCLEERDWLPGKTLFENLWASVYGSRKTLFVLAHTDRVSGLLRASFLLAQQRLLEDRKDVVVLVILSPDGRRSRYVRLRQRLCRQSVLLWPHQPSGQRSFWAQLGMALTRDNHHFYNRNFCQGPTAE
Text: HEK293-Blue-hTLR-9 Cells Assay:
A stable HEK293-Blue-hTLR-9 cell line was purchased from InvivoGen (Cat. #: hkb-htlr9, San Diego, California, USA). These cells were originally designed for studying the stimulation of human TLR9 by monitoring the activation of NF-κB. A SEAP (secreted embryonic alkaline phosphatase) reporter gene was placed under the control of the IFN-β minimal promoter fused to five NF-κB and AP-1-binding sites. The SEAP was induced by activating NF-κB and AP-via stimulating HEK-Blue hTLR9 cells with TLR9 ligands. Therefore the reporter expression was declined by TLR9 antagonist under the stimulation of a ligand, such as ODN2006 (Cat. #: tlrl-2006-1, Invivogen, San Diego, California, USA), for incubation of 20 hrs. The cell culture supernatant SEAP reporter activity was determined using QUANTI-Blue™ kit (Cat. #: rep-qb1, Invivogen, San Diego, California, USA) at a wavelength of 640 nm, a detection medium that turns purple or blue in the presence of alkaline phosphatase.
as §2, with “HEK293-Blue-hTLR9 cells” for “HEK293-Blue-hTLR7 cells”, “μM ODN2006” for “μM R848”, “2 h” for “2 hrs”, “that TLR9” for “that TLR7”, “evaluating TLR9” for “evaluating TLR7”

Chain of human TLR7 (Q9NYK1 27-1049): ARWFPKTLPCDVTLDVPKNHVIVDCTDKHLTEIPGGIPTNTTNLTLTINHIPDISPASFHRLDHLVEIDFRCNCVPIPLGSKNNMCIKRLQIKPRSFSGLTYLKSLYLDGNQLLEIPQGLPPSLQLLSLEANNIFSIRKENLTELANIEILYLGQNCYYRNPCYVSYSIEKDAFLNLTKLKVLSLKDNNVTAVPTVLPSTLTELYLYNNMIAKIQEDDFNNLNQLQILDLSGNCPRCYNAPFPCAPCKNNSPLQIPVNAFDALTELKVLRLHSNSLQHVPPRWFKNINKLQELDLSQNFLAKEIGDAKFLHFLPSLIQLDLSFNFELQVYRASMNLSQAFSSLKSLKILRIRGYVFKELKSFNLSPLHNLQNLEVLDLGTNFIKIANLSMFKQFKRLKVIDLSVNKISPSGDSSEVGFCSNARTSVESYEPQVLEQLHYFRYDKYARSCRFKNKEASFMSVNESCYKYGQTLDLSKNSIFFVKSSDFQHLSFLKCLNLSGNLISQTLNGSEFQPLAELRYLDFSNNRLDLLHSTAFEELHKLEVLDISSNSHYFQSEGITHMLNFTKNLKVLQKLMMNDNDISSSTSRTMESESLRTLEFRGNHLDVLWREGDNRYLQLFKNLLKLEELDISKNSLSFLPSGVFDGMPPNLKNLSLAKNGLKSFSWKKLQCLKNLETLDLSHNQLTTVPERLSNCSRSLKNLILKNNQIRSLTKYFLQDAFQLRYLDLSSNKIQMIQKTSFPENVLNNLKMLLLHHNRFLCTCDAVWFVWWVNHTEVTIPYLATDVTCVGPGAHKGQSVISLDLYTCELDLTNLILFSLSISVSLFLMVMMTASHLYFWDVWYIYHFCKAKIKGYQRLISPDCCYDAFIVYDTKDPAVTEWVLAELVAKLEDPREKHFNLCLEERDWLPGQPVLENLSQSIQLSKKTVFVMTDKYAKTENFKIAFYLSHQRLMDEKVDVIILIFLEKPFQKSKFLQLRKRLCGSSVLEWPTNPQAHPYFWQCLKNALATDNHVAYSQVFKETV

SMILES	pIC50 (human TLR7)	pIC50 (human TLR8)	pIC50 (human TLR9)
C[C@@H]1CN(c2ccc(C#N)c3ncccc23)C[C@@H]2CC(N3CCN(c4cc5c(cn4)CCNC5)CC3)CN21 (stereo in doubt) [Example 13, 5-[(4R,7R,8aS)-4-methyl-7-[4-(5,6,7,8-tetrahydro-2,6-naphthyridin-3-yl)piperazin-1-yl]-3,4,6,7,8,8a-hexahydro-1H-pyrrolo[1,2-a]pyrazin-2-yl]quinoline-8-carbonitrile]	7.83	8.09	7.31
C[C@@H]1CN(c2ccc(C#N)c3ncccc23)C[C@@H]2C[C@@H](Nc3ccc4c(n3)CCN(C)C4)CN21 [Example 4, 5-[(4R,7R,8aS)-4-methyl-7-[(6-methyl-7,8-dihydro-5H-1,6-naphthyridin-2-yl)amino]-3,4,6,7,8,8a-hexahydro-1H-pyrrolo[1,2-a]pyrazin-2-yl]quinoline-8-carbonitrile]	7.66	8.20	6.83
C[C@@H]1CN(c2ccc(C#N)c3ncccc23)C[C@@H]2C[C@@H](N(C)c3ccc4c(n3)CCNC4)CN21 [Example 5, 5-[(4R,7R,8aS)-4-methyl-7-[methyl(5,6,7,8-tetrahydro-1,6-naphthyridin-2-yl)amino]-3,4,6,7,8,8a-hexahydro-1H-pyrrolo[1,2-a]pyrazin-2-yl]quinoline-8-carbonitrile]	7.77	8.54	7.11
C[C@@H]1CN(c2ccc(C#N)c3ncccc23)C[C@@H]2C[C@@H](Nc3ncc4c(n3)CCNC4)CN21 [Example 6, 5-[(4R,7R,8aS)-4-methyl-7-(5,6,7,8-tetrahydropyrido[4,3-d]pyrimidin-2-ylamino)-3,4,6,7,8,8a-hexahydro-1H-pyrrolo[1,2-a]pyrazin-2-yl]quinoline-8-carbonitrile]	7.73	7.89	6.80
C[C@@H]1CN(c2ccc(C#N)c3ncccc23)C[C@@H]2C[C@@H](Nc3ccc4c(n3)CN[C@@H]4C)CN21 [Example 7A, 5-[(4R,7R,8aS)-4-methyl-7-[[(5R)-5-methyl-6,7-dihydro-5H-pyrrolo[3,4-b]pyridin-2-yl]amino]-3,4,6,7,8,8a-hexahydro-1H-pyrrolo[1,2-a]pyrazin-2-yl]quinoline-8-carbonitrile]	7.75	8.05	7.27
C[C@@H]1NCc2nc(N[C@@H]3C[C@H]4CN(c5ccc(C#N)c6ncccc56)C[C@@H](C)N4C3)ccc21 [Example 7B, 5-[(4R,7R,8aS)-4-methyl-7-[[(5S)-5-methyl-6,7-dihydro-5H-pyrrolo[3,4-b]pyridin-2-yl]amino]-3,4,6,7,8,8a-hexahydro-1H-pyrrolo[1,2-a]pyrazin-2-yl]quinoline-8-carbonitrile]	7.53	7.95	7.25
C[C@@H]1CN(c2ccc(C#N)c3ncccc23)C[C@@H]2C[C@@H](Nc3ccc4c(n3)C[C@H](C)NC4)CN21 [Example 8A, 5-[(4R,7R,8aS)-4-methyl-7-[[(7S)-7-methyl-5,6,7,8-tetrahydro-1,6-naphthyridin-2-yl]amino]-3,4,6,7,8,8a-hexahydro-1H-pyrrolo[1,2-a]pyrazin-2-yl]quinoline-8-carbonitrile]	7.95	8.44	7.20
C[C@@H]1Cc2nc(N[C@@H]3C[C@H]4CN(c5ccc(C#N)c6ncccc56)C[C@@H](C)N4C3)ccc2CN1 [Example 8B, 5-[(4R,7R,8aS)-4-methyl-7-[[(7R)-7-methyl-5,6,7,8-tetrahydro-1,6-naphthyridin-2-yl]amino]-3,4,6,7,8,8a-hexahydro-1H-pyrrolo[1,2-a]pyrazin-2-yl]quinoline-8-carbonitrile]	7.83	8.12	7.05
C[C@@H]1CN(c2ccc(C#N)c3ncccc23)C[C@@H]2C[C@H](N3CCc4cc(N5CCNCC5)ccc4C3)CN21 [Example 10, 5-[(4R,7S,8aS)-4-methyl-7-(6-piperazin-1-yl-3,4-dihydro-1H-isoquinolin-2-yl)-3,4,6,7,8,8a-hexahydro-1H-pyrrolo[1,2-a]pyrazin-2-yl]quinoline-8-carbonitrile]	7.52	7.60	7.09
CO[C@@H]1CN(c2ccc3c(n2)CCN([C@H]2C[C@H]4CN(c5ccc(C#N)c6ncccc56)C[C@@H](C)N4C2)C3)C[C@H]1N [Example 11, 5-[(4R,7S,8aS)-7-[2-[(3R,4R)-3-amino-4-methoxy-pyrrolidin-1-yl]-7,8-dihydro-5H-1,6-naphthyridin-6-yl]-4-methyl-3,4,6,7,8,8a-hexahydro-1H-pyrrolo[1,2-a]pyrazin-2-yl]quinoline-8-carbonitrile]	7.63	8.07	7.23
CO[C@@H]1CN(c2cc3c(cn2)CCN([C@H]2C[C@H]4CN(c5ccc(C#N)c6ncccc56)C[C@@H](C)N4C2)C3)C[C@H]1N [Example 12, 5-[(4R,7S,8aS)-7-[7-[(3R,4R)-3-amino-4-methoxy-pyrrolidin-1-yl]-3,4-dihydro-1H-2,6-naphthyridin-2-yl]-4-methyl-3,4,6,7,8,8a-hexahydro-1H-pyrrolo[1,2-a]pyrazin-2-yl]quinoline-8-carbonitrile]	7.35	7.76	6.97
C[C@@H]1CN(c2ccc(C#N)c3ncccc23)C[C@@H]2CC(Oc3ccc4c(n3)CCNC4)CN21 (stereo partly drawn) [Example 14, 5-[(4R,8aS)-4-methyl-7-(5,6,7,8-tetrahydro-1,6-naphthyridin-2-yloxy)-3,4,6,7,8,8a-hexahydro-1H-pyrrolo[1,2-a]pyrazin-2-yl]quinoline-8-carbonitrile]	7.79	8.40	6.61
